In patent US6956040B2, “Oxazolidinone piperazinyl derivatives as potential antimicrobials” (Ranbaxy Laboratories Limited, priority 2001, dated 2005):
Converted amounts (≈) assume the structure as drawn. Like-named read-outs stand apart in the source and are kept apart here. One block for each compound: values may come before it.

Key:
MRSA 33 = test: MIC, agar incorporation method; type: cell-based, Staphylococcus aureus; conditions: MRSA 33, agar incorporation
Description: (§1) The compounds of the invention display antibacterial activity when tested by the agar incorporation method. The following minimum inhibitory concentrations (μg/ml) were obtained for representative compounds of the invention which are given below in the following tables.
(§2) Briefly, the compounds were dissolved in DMSO and doubling dilution of the compounds were incorporated into Meuller Hilton agar before solidification. Inoculum was prepared by suspending 4 to 5 colonies into 5 ml of normal saline solution and adjusting the turbidity to 0.5 Macfarland turbidity standard tables (1.5×10^8 CFU/ml), after appropriate dilutions, 10^4 CFU/spot was transfered into the surface of dried plate and incubated for 18 hours (24 hours for MRSN studies). The concentration showing no growth of the inoculated culture was recorded as the MIC. Appropriate ATCC standard strains were simultaneously tested and result recorded only when the MIC's against standard antibiotics were within the acceptable range.

E. faecalis 29212 = test: MIC, agar incorporation method; type: cell-based, Enterococcus faecalis; conditions: E. faecalis 29212, agar incorporation
Excerpt: as §1
(§3) • 1) S.aureus ATCC 25923—Staphylococus aureus ATCC 25923 • 2) MRSA 15187—Methicillin Resistant Staphylococcus aureus • 3) Ent. faecalis ATCC 29212—Enterococcus faecalis ATCC 29212 • 4) Ent. faecium 6A—Enterococcus faecium 6A Van®, Cipro® • 5) Strep. pne. ATCC 6303—Streptococcus pneumoniae ATCC 6303 • 6) Strep. pyog. ATCC 19615—Streptococcus pyogenes • 7) S. epidermidis—Staphylococcus epidermidis ATCC 12228
as §2

MRSA 15187 = test: MIC, agar incorporation method; type: cell-based, Staphylococcus aureus; conditions: MRSA 15187, agar incorporation
Excerpt: as §1, §3, §2

S. aureus 25923 = test: MIC, agar incorporation method; type: cell-based, Staphylococcus aureus; conditions: S. aureus 25923, agar incorporation
Excerpt: as §1, §3, §2

S. pyogenes 19615 = test: MIC, agar incorporation method; type: cell-based, Streptococcus pyogenes; conditions: S. pyogenes 19615, agar incorporation
Excerpt: as §1, §3, §2

S. pneum 6303 = test: MIC, agar incorporation method; type: cell-based, Streptococcus pneumoniae; conditions: S. pneum 6303, agar incorporation
Excerpt: as §1, §3, §2

S. pneum AB 34 = test: MIC, agar incorporation method; type: cell-based, Streptococcus pneumoniae; conditions: S. pneum AB 34, agar incorporation
Description: as §1, §2

VRE 6A = test: MIC, agar incorporation method; type: cell-based, Enterococcus faecium; conditions: VRE 6A, agar incorporation
Excerpt: as §1, §3, §2

[1] = Changes in MIC under different conditions: Broth MIC; type: cell-based; conditions: strain not given
[2] = Changes in MIC under different conditions: Agar MIC; type: cell-based; conditions: strain not given
Description: as §1, §2

MRSA 562 [3] = test: MIC, agar incorporation method; type: cell-based, Staphylococcus aureus; conditions: MRSA 562
Description: as §1, §2

G+ve = test: Summary of in vitro activity (MIC) against G+ve bacteria; type: cell-based; conditions: for MIC50 / MIC90: G+ve, Number 49
Description: as §1, §2

S. pneumoniae = test: Summary of in vitro activity (MIC) against S. pneumoniae; type: cell-based, Streptococcus pneumoniae; conditions: S. pneumoniae; for MIC50 / MIC90: Number 19
Description: as §1, §2

S. aureus = test: Summary of in vitro activity (MIC) against S. aureus; type: cell-based, Staphylococcus aureus; conditions: S. aureus; for MIC50 / MIC90: Number 8
Description: as §1, §2

E. faecalis = test: Summary of in vitro activity (MIC) against E. faecalis; type: cell-based, Enterococcus faecalis; conditions: E. faecalis; for MIC50 / MIC90: Number 7
Description: as §1, §2

MRSA 562 [4] = test: In vivo activity against MRSA 562 (ED50); design: species or system Staphylococcus aureus
[5] = Staphylococcus aureus, read-out: MIC

Structure (SMILES): CC(=O)NC[C@H]1CN(c2ccc(N3CCN(Cc4ccc([N+](=O)[O-])o4)CC3)c(F)c2)C(=O)O1.Cl [Compound No. 16]
MIC (MRSA 33): 4 µg/mL
MIC (E. faecalis 29212): 2 µg/mL
MIC (MRSA 15187): 4 µg/mL
MIC (S. aureus 25923): 2 µg/mL
MIC (S. pyogenes 19615): 0.5 µg/mL
MIC (S. pneum 6303): 1 µg/mL
MIC (S. pneum AB 34): 1 µg/mL
MIC (VRE 6A): 4 µg/mL
Broth MIC +50% Sheep serum [1]: 2 µg/mL
Broth MIC Normal MH broth [1]: 2 µg/mL
Agar MIC [2]: 2 µg/mL

MIC (MRSA 562 [3]; Table 5): 0.5 µg/mL (≈ 1.02 µM)
MIC (MRSA 562 [3]; agar incorporation, Table 1): 0.5 µg/mL (≈ 1.02 µM)
MIC (MRSA 33): 1 µg/mL (≈ 2.04 µM)
MIC50 (G+ve): 1 µg/mL (≈ 2.04 µM)
MIC90 (G+ve): 2 µg/mL (≈ 4.09 µM)
Geometric Mean of in vitro activity (MIC) (G+ve; Gram +ve): 0.72 µg/mL
MIC (E. faecalis 29212): 0.5 µg/mL (≈ 1.02 µM)
MIC (MRSA 15187): 1 µg/mL (≈ 2.04 µM)
MIC (S. aureus 25923): 1 µg/mL (≈ 2.04 µM)
MIC (S. pyogenes 19615): 0.125 µg/mL (≈ 0.255 µM)
MIC (S. pneum 6303): 0.5 µg/mL (≈ 1.02 µM)
MIC (S. pneum AB 34): 2 µg/mL (≈ 4.09 µM)
Geometric Mean of in vitro activity (MIC) (S. pneumoniae): 1.41 µg/mL
MIC50 (S. pneumoniae): 1 µg/mL (≈ 2.04 µM)
MIC90 (S. pneumoniae): 2 µg/mL (≈ 4.09 µM)
MIC (VRE 6A): 0.25 µg/mL (≈ 0.511 µM)
Geometric Mean of in vitro activity (MIC) (S. aureus): 1 µg/mL
MIC50 (S. aureus): 1 µg/mL (≈ 2.04 µM)
MIC90 (S. aureus): 2 µg/mL (≈ 4.09 µM)
Geometric Mean of in vitro activity (MIC) (E. faecalis): 0.42 µg/mL
MIC50 (E. faecalis): 0.5 µg/mL (≈ 1.02 µM)
MIC90 (E. faecalis): 1 µg/mL (≈ 2.04 µM)
Structure (SMILES): CC(=O)NC[C@H]1CN(c2ccc(N3CCC(N(C)Cc4ccc([N+](=O)[O-])o4)CC3)c(F)c2)C(=O)O1 [Compound No. 50, (S)-N-[[3-[4-[4-(N-methyl-N-2-furyl(5-nitro)methyl)-aminopiperidine-1-yl]-3-fluorophenyl]-2oxo-oxazolidin-5-yl]methyl]acetamide]

MIC (MRSA 562 [3]; Table 5): 2 µg/mL (≈ 4.35 µM)
Structure (SMILES): CC(=O)NC[C@H]1CN(c2ccc(N3CCN(Cc4ccc(NC=O)o4)CC3)c(F)c2)C(=O)O1 [Compound No. 67]
ED50 (mg/kg body weight) PO (MRSA 562 [4]): >25 mg/kg body weight

MIC (MRSA 562 [3]; Table 5): 4 µg/mL (≈ 8.22 µM)
MIC (MRSA 33): 4 µg/mL (≈ 8.22 µM)
MIC (E. faecalis 29212): 4 µg/mL (≈ 8.22 µM)
MIC (MRSA 15187): 4 µg/mL (≈ 8.22 µM)
MIC (S. aureus 25923): 4 µg/mL (≈ 8.22 µM)
MIC (S. pyogenes 19615): 2 µg/mL (≈ 4.11 µM)
MIC (S. pneum 6303): 4 µg/mL (≈ 8.22 µM)
MIC (S. pneum AB 34): 4 µg/mL (≈ 8.22 µM)
MIC (VRE 6A): 4 µg/mL (≈ 8.22 µM)
Structure (SMILES): CC(=O)NC[C@H]1CN(c2ccc(N3CC4C(C3)C4N(C)C(=O)Cc3cccs3)c(F)c2)C(=O)O1 (stereo partly drawn) [Compound No. 71, (S)-N-[[3-[3-Fluoro[4-[3-(1α, 5α, 6α)-6-[N-(2-thiopheneacetyl)-N-methyl]amino]-3-azabicyclo-[3.1.0]hexane]phenyl]-2-oxo-5-oxazolidinyl]methyl]acetamide]
ED50 (mg/kg body weight) PO (MRSA 562 [4]): >25 mg/kg body weight

Structure (SMILES): CC(=O)NC[C@H]1CN(c2ccc(N3CCOCC3)c(F)c2)C(=O)O1 [Linezolid, reference compound]
MIC (MRSA 562 [3]; Table 5): 2 µg/mL (≈ 5.93 µM)
MIC (MRSA 562 [3]; Staphylococcus aureus, agar incorporation, Table 1, read-out: MIC): 2 µg/mL (≈ 5.93 µM)
MIC (MRSA 33; [5]): 2 µg/mL (≈ 5.93 µM)
MIC50 (G+ve; read-out: MIC50): 2 µg/mL (≈ 5.93 µM)
MIC90 (G+ve; read-out: MIC90): 4 µg/mL (≈ 11.9 µM)
MIC (G+ve; Gram +ve, read-out: Geometric Mean of in vitro activity (MIC)): 1.25 µg/mL (≈ 3.71 µM)
MIC (E. faecalis 29212; Enterococcus faecalis, read-out: MIC): 2 µg/mL (≈ 5.93 µM)
MIC (MRSA 15187; [5]): 1 µg/mL (≈ 2.96 µM)
MIC (S. aureus 25923; [5]): 2 µg/mL (≈ 5.93 µM)
MIC (S. pyogenes 19615; Streptococcus pyogenes, read-out: MIC): 2 µg/mL (≈ 5.93 µM)
MIC (S. pneum 6303; Streptococcus pneumoniae, read-out: MIC): 2 µg/mL (≈ 5.93 µM)
MIC (S. pneum AB 34; Streptococcus pneumoniae, AB34, read-out: MIC): 4 µg/mL (≈ 11.9 µM)
MIC50 (S. pneumoniae; Streptococcus pneumoniae, read-out: MIC50): 0.5 µg/mL (≈ 1.48 µM)
MIC90 (S. pneumoniae; Streptococcus pneumoniae, read-out: MIC90): 2 µg/mL (≈ 5.93 µM)
MIC (S. pneumoniae; Streptococcus pneumoniae, read-out: Geometric Mean of in vitro activity (MIC)): 0.6 µg/mL (≈ 1.78 µM)
MIC (VRE 6A; Enterococcus, read-out: MIC): 2 µg/mL (≈ 5.93 µM)
MIC50 (S. aureus; Staphylococcus aureus, read-out: MIC50): 2 µg/mL (≈ 5.93 µM)
MIC90 (S. aureus; Staphylococcus aureus, read-out: MIC90): 4 µg/mL (≈ 11.9 µM)
MIC (S. aureus; Staphylococcus aureus, read-out: Geometric Mean of in vitro activity (MIC)): 2.38 µg/mL (≈ 7.05 µM)
Broth MIC +50% Sheep serum [1]: 2 µg/mL
Broth MIC Normal MH broth [1]: 1 µg/mL
Agar MIC [2]: 2 µg/mL
MIC50 (E. faecalis; Enterococcus faecalis, read-out: MIC50): 4 µg/mL (≈ 11.9 µM)
MIC90 (E. faecalis; Enterococcus faecalis, read-out: MIC90): 16 µg/mL (≈ 47.4 µM)
MIC (E. faecalis; Enterococcus faecalis, read-out: Geometric Mean of in vitro activity (MIC)): 4 µg/mL (≈ 11.9 µM)
